# Measurements taken from ChEMBL document CHEMBL1148325 (J Med Chem, 2004).
# Experiment: In vivo reduction in blood pressure relative to maximum achieved with the K-ATP standard P1075 in spontaneously hypertensive rat
row,Structure (SMILES),ED50
1,O=C1OCC2=C1C(c1ccc(F)c(Br)c1)C1=C(O)OCC1=N2 (stereo not drawn),398 nM
2,O=C1CCCC2=C1[C@H](c1ccc(F)c(Br)c1)C1=C(CCS1(=O)=O)N2,427 nM
3,O=C1CCCC2=C1[C@@H](c1ccc(F)c(Br)c1)C1=C(O)OCC1=N2,2450 nM
